In US9322895B2, “Method of determining metabolic function using magnetic resonance spectroscopic imaging” (Greater Glasgow Health Board, priority 2009, dated 2016):

Key:
[1] = standard temperature and pressure; cited from earlier work
[2] = tested on: anaesthetised rats following a middle cerebral artery occlusion (MCAO); test: Localised 1H spectroscopy (PRESS) with oxygen challenge in rats following MCAO; assay type: in vivo; settings: rat MCAO
Method: In-vivo MRI experiments were performed on anaesthetised rats following a middle cerebral artery occlusion (MCAO). The measurements included RARE T2 imaging, diffusion weighted imaging (DWI), perfusion weighted imaging (PWI), 1H localised spectroscopy and lactate difference imaging (LDI).
The first experiment used a standard localised spectroscopy sequence (PRESS) to acquire 1H spectra. One voxel was placed in the presumed penumbral region (as indicated by DWI/PWI mismatch), a second voxel was placed in the normal contralateral hemisphere (see FIG. 1)

Compound | oxygen carried by 100 ml [1] [mL] | lactate peak in the penumbra on returning to 100% inhaled air ([2]; after the oxygen challenge) | lactate peak in the penumbral region ([2]; challenge of 100% inhaled oxygen, voxel in DWI/PWI mismatch) | lactate peak in the contralateral region ([2]; challenge of 100% inhaled oxygen, voxel in normal contralateral hemisphere)
FC1(F)C(F)(F)C(F)(F)C2(F)C(F)(F)C(F)(F)C(F)(F)C(F)(F)C2(F)C1(F)F (stereo not shown) [Perflorodecalin] | 49 |  |  | 
O=O [oxygen] |  | increased back to previous level | significant decrease | remained unchanged
